According to the SangsterLogP compilation:

Settings: pH 5.0

| SMILES | logD |
| --- | --- |
| Cc1cc(Cl)ccc1NC(=S)NCCc1c[nH]c2ccccc12 | 4.34 |
| CCN(CC)S(=O)(=O)c1ccc2nnn(OCC(=O)NC(c3ccccc3)c3ccccc3)c2c1 | 4.49 |
| C[C@@H](NC(=O)CN(C1CCCCC1)S(=O)(=O)c1ccccc1)c1ccccc1 | 4.9 |
| C[C@@H]1CCCCN1C(=O)CCCCC(=O)N1CCCC[C@H]1C | 3.42 |

Same assay, conditions: pH 6.0

| SMILES | logD |
| --- | --- |
| CC1=C(C(=O)N2CCCCC2)C(c2cccs2)C2=C(O)CCCC2=N1 (stereo not drawn) | 3.37 |

Same assay, conditions: pH 6.5

| SMILES | logD |
| --- | --- |
| O=C(CN1N=N[C@@H]2C(=O)N(c3ccc(Cl)cc3Cl)C(=O)[C@@H]21)Nc1ccccc1 | 4.3 |
| C[C@H]1CCCN(C(=O)COC(=O)COc2cc(Cl)c(Cl)cc2Cl)C1 | 4.97 |
| CC(C)(C)C1(C)O[C@H](C(N)=O)[C@H](C(N)=O)O1 (stereo partly drawn) | 1.6 |
| CCn1c(NC[C@@H](O)c2ccccc2)nc2c1c(=O)n(C)c(=O)n2C | 3.24 |
| N#CC1(C#N)[C@H](c2ccc(Br)s2)[C@@H](C(=O)c2ccccc2)N2c3ccccc3C=C[C@@H]21 | 5.05 |
| CCOC(=O)c1[nH]c(C)c(C(=O)OCC(=O)N2CCc3ccccc32)c1C | 4.47 |
| C[C@H]1CCCC[C@@H]1NC(=O)COc1ncnc2ccccc12 | 3.11 |
| COC(=O)c1ccc(C(=O)OC)c(NC(=O)CSc2ncnc3sc4c(c23)CC[C@@H](C)C4)c1 | 5.79 |
| C[C@H]1CCc2nc(NC(=O)c3ccc(F)c(F)c3)sc2C1 | 4.79 |
| O=C(CCCCCN1C(=O)/C(=C\c2cccs2)SC1=S)N1CCOCC1 | 4.92 |
| C[C@@H](CCc1ccccc1)NC(=O)C(=O)NC[C@@H]1COc2ccccc2O1 | 4.8 |
| Cc1ccc(N2CC(=O)N(/N=C/c3cn(-c4ccccc4)nc3-c3ccc(Cl)cc3)CC2=O)cc1 | 6.14 |
| CC/C(=N\N=C1/S[C@@H](C)C(=O)N1Cc1ccco1)c1ccccc1 | 5.07 |

Same assay, conditions: pH 7.3

| SMILES | logD |
| --- | --- |
| COc1ccc([C@H]2C[C@H](C(F)(F)F)n3ncc(C(=O)N(C)Cc4cnn(C)c4C)c3N2)cc1OC | 4.25 |
| CCOc1ccc([C@@H]2Oc3nc(SC)nnc3-c3ccccc3N2C(=O)CC)cc1OC | 3.95 |
| Cc1cc(C)nc(-n2nc(C)c3c2NC2=CC(C)(C)CC(=O)[C@H]2[C@@H]3c2ccco2)n1 | 4.34 |
| COc1cccc([C@@H]2C3=C(CCCC3=O)N=C(C)C2C(=O)OC[C@@H]2CCCO2)c1 (stereo partly drawn) | 3.62 |

Same assay, conditions: pH 8.0

| SMILES | logD |
| --- | --- |
| COc1ccc([C@@H]2Nc3ccccc3C(=O)N2c2ccccc2)cc1COc1ccc(NC(C)=O)cc1 | 4.65 |
| CCCc1[nH]nc2c1[C@@]1(C(=O)N(CC(N)=O)c3ccccc31)C(C(=O)OC)=C(N)O2 | 4.48 |
| COC(=O)CSc1nc(NCC(C)C)nc(N2CCOCC2)n1 | 3.75 |
| COC(=O)c1c(N[C@@H](NC(C)=O)C(Cl)(Cl)Cl)sc2c1CCCC2 | 5.04 |

Same assay, conditions: pH 10.0

| SMILES | logD |
| --- | --- |
| CCCC[C@@]1(c2ccccc2)NC(=S)N(c2ccc(C)cc2)N1 | 5.1 |
| CCOC(=O)C1=C(N)N2C(=O)[C@H](C)SC2=C(C(=O)OCC)[C@H]1c1ccc(Cl)cc1Cl | 5.49 |
| CSc1ccc([C@@H]2[C@@H]3C(=O)N(c4cccc(C(F)(F)F)c4)C(=O)[C@H]3ON2c2ccccc2)cc1 | 5.98 |
| COc1cc([C@@H]2Nc3cc(C)c(C)cc3NC3=C2C(=O)CC(C)(C)C3)cc(OC)c1OC(C)=O | 4.21 |
| CCOC(=O)C1=NN[C@@]2(c3cccc([N+](=O)[O-])c3)C(=O)N(c3cccc(C(F)(F)F)c3)C(=O)[C@H]12 | 4.73 |
| CCOCc1c(C)cc(C)c([C@@H]2C(C#N)=C(N)Oc3[nH]nc(C)c32)c1C | 4.09 |
| Clc1cccc(Cl)c1Cn1ccc(Nc2nnc(Cc3ccc(-n4cnnn4)cc3)s2)n1 | 4.99 |
| CCSCCOC(=O)C1=C(C)NC2=C(C(=O)C[C@@H](c3cccs3)C2)[C@H]1c1ccc2c(c1)OCO2 | 5 |
| CC[C@@H](SC1=Nc2ccccc2C2=N[C@@H](Cc3ccccc3)C(=O)N12)C(=O)N1CCOCC1 | 3.95 |
| CCSCCOC(=O)C1=C(C)NC2=C(C(=O)C[C@@H](c3cccs3)C2)[C@@H]1c1ccc(C(=O)OC)cc1 | 5.24 |
| CC(C)OC(=O)C1=C(CSc2nc3c(cc2C#N)CCCCC3)OC(N)=C(C#N)[C@@H]1c1ccncc1 | 5.43 |
| CC[C@@H]1CCCCN1C(=O)[C@H]1CC(c2cc(Cl)c(OC)cc2OC)=NO1 | 4.55 |

Same assay, conditions: pH 10.5

| SMILES | logD |
| --- | --- |
| CCOc1ccc(C2=NN=C3OC(N)=C(C#N)[C@@H](c4ccco4)[C@@H]32)c(OCC)c1 | 4.48 |
| CCOc1ccc(N2CN=c3s/c(=C\c4cc(OC)c(OC)cc4[N+](=O)[O-])c(=O)n3C2)cc1 | 4.93 |
| Cc1ccc(NCc2ccc3n2C/C(=C2/CCn4c(CNc5ccc(C)cc5)ccc42)C3=O)cc1 | 6.51 |
| C[C@@H](c1nc2c3cnn(-c4ccccc4)c3ncn2n1)n1cc([N+](=O)[O-])cn1 | 3.73 |
| CN(c1ccccc1)S(=O)(=O)c1ccc(C(=O)N2CCN(c3ccccc3Cl)CC2)cc1 | 5.31 |
| CCOC(=O)C1=C(C)N=c2s/c(=C\c3ccc(OC(C)=O)cc3)c(=O)n2C1c1cccs1 (stereo not drawn) | 4.77 |
| CC(=O)C1=C(C)NC(SCC(=O)Nc2ccccc2)=C(C#N)[C@H]1c1ccccc1Cl | 4.97 |
| CN1C(=O)N(C)C2(c3ccccc3)Nn3c(s/c(=C\c4ccc(Br)cc4)c3=O)=NC12c1ccccc1 (stereo not drawn) | 5.72 |
| CCCc1[nH]nc2c1[C@H](c1ccsc1C)C(C#N)=C(N)O2 | 3.83 |
| Nc1nc(O/N=C/c2ccc([N+](=O)[O-])cc2)nc(N2CCOCC2)n1 | 3.18 |
